Data as given in US9908890B2, “Selective inhibitors of constitutive androstane receptor” (ST. JUDE CHILDREN'S RESEARCH HOSPITAL, priority 2014, dated 2018).
Where two headings read alike, the source gives them in different places.

Assays:
[1] = test system: CAR- and PXR-regulated genes in human primary hepatocytes; experiment: Quantitative real-time PCR in human primary hepatocytes; assay type: cell-based; conditions: three donors, 1 μM CITCO or 5 μM PK11195, 48 h
From the text: (§1) RNA was extracted, cDNA synthesized, and gene expression analyzed by performing real-time PCR using Taqman probes for each gene. […] LS174T cells were maintained in 10% charcoal-dextran-treated, FBS media for 4 days before the experiment. […] Briefly, human primary hepatocytes (HPH) were maintained in William's E media with supplements for 4 days before treatment. […] RNA extracted was used for cDNA synthesis and measured by performing quantitative real-time PCR assays with Taqman probes.
Briefly, human primary hepatocytes (donor 5) were maintained in William's E Media with supplements for 4 days prior to treatment. […] RNA extracted was used for cDNA synthesis and measured by quantitative real-time PCR with Taqman probes. CYP2B6 and CYP3A4 mRNA were normalized to the internal control 18S and DMSO-treated samples were set to 1.
(§2) Cell lines or human hepatocytes were treated with chemicals for 24-48 hours before RNA was extracted and purified by using the Maxwell 16LEV simplyRNA tissue kit (Promega). Then, cDNA was prepared from 2 μg of RNA, and diluted cDNA was used to perform quantitative RT-PCR assays by using TaqMan probes (ABI; 7500 Thermocycler) with 18S as the internal standard.

[2] = test system: CAR binding to CYP2B6 and CYP3A4 promoter response elements; experiment: Chromatin immunoprecipitation (CAR / RNA polymerase II occupancy at promoters); assay type: cell-based, human; conditions: human primary hepatocytes, 3 donors, overnight, 1 μM CITCO or 5 μM CINPA1
Protocol: FIG. 8B and FIG. 8C show the fold enrichment of CAR at CYP2B6-dNR3 and CYP2B6-PBREM sites, respectively, in the promoter region following the indicated treatment in human primary hepatocytes. […] Protein complexes were cross-linked and chromatin was immunoprecipitated by using anti-CAR antibody or control IgG. CAR occupancy at two separate CYP2B6 promoter regions (dNR3 and PBREM) was determined by performing quantitative RT-PCR assays. Fold-enrichment normalized to IgG control was plotted. Data represent the mean±SD of 3 experiments. *, p<0.01 comparing CITCO treatment to DMSO treatment.
FIG. 9A, FIG. 9B, and FIG. 9C show the fold enrichment of CAR at CYP2B6-dNR3, CYP3A4-XREM, and CYP2B6-dNR3 sites, respectively, in the promoter region following the indicated treatment in human primary hepatocytes or HepG2-hCAR1 cells, as indicated in the figures. Briefly, in FIG. 9A and FIG. […] 9C HepG2-hCAR1 stable cells were treated for […] with DMSO, 1 μM CITCO, 5 μM CINPA1, or 1 μM CITCO+5 μM CINPA1. Protein complexes were cross-linked and chromatin was immunoprecipitated by using anti-CAR antibody, anti-RNA polymerase II (RPol) antibody, or control IgG. CAR or RPol occupancy at the CYP2B6-dNR3 region and CYP3A4-XREM region was determined by performing quantitative RT-PCR assays. Fold-enrichment was normalized to IgG control. Data represent the mean±SD of 3 experiments. *, p<0.001 and #, p<0.01 comparing CITCO to DMSO samples. **, p<0.001 and ##, p<0.01 comparing CITCO+CINPA1 to CITCO samples.
ChIP was performed as described previously (Cherian, M. T., et al. (2012) J. Biol. Chem. 287, 23368-23380). Briefly, human hepatocytes in 6-well plates were maintained for 3-4 days in Williams E medium containing Primary Hepatocyte Maintenance Supplement (Life Technologies), with daily media changes. Nine wells were used for each treatment group. […] The HepG2-hCAR1 stable cells in FIG. 9 were treated with DMSO, 1 μM CITCO, 5 μM CINPA1, or 1 μM CITCO+5 μM CINPA1 for […]. In FIG. 9, the hepatocytes from donor 7 were treated with DMSO, 0.1 μM CITCO, 1 μM CINPA1, or 0.1 μM CITCO+1 μM CINPA1 for 45 min. Proteins were cross-linked with 1% formaldehyde for 10 min. Cell extracts were digested for 10 min with 50 units of micrococcal nuclease (New England Biolabs) at 37° C. and further sonicated to yield sheared DNA fragments having an average length of 200-1000 base pairs. The sonicated samples were pelleted by centrifugation, and the supernatant was diluted 3- to 5-fold with ChIP dilution buffer (0.01% SDS, 1.1% Triton X-100, 1.2 mM EDTA, 16.7 mM Tris-HCl, pH 8.1, 167 mM NaCl, and protease inhibitor cocktail). […] Quantitative RT-PCR assays were performed to determine the change in CAR occupancy at various sites of CAR binding. […]

GST-hCAR-LBD = target: T1, GST-hCAR-LBD (Homo sapiens, UniProt Q14994); experiment: CoAct binding inverse agonist assay (LanthaScreen TR-FRET, fluorescent PGC-1α coactivator recruitment/repression); assay type: biochemical; conditions: for inhibition at 70 µM: read-out: % Inhibition (70 μM)
T1 construct: purchased Life Technologies (Carlsbad, Calif.) or Invitrogen (Carlsbad, Calif.)
T1 sequence (Q14994 109-352 limits assumed): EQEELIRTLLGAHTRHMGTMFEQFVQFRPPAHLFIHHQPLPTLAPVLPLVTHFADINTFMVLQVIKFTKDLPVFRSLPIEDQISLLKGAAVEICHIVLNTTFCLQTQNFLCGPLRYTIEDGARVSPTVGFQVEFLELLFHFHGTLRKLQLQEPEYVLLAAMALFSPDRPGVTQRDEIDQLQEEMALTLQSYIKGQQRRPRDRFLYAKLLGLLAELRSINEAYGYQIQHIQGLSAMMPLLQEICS
Protocol: The effect of putative CAR ligands on the recruitment or repression of PGC-1α binding to hCAR was evaluated by using a LanthaScreen TR-FRET assay according to the manufacturer's instructions. […] The final DMSO concentration was 0.7% in all assay wells. […] The % Inhibition values were then plotted for individual chemicals. When applicable, the graphic software GraphPad Prism 5.04 (GraphPad Software, La Jolla, Calif., USA) was used to fit the data into a one-site competitive-binding equation to derive IC50 values. […] The assay plates were then briefly spun down and incubated for 1 hour at room temperature (25° C.). […] The final DMSO concentration was 0.7% in all assay wells. […] The % Inhibition values were then plotted for individual chemicals. When applicable, the graphic software GraphPad Prism 5.04 (GraphPad Software, La Jolla, Calif., USA) was used to fit the data into a one-site competitive-binding equation to derive IC50 values.

hCAR1 = target: T2, hCAR1 (Homo sapiens, UniProt Q14994); experiment: Cell-based inverse agonist assay (CYP2B6-luciferase reporter in HepG2 cells transfected with hCAR1)
T2 construct: expressed in transfected cells; host or cells: HepG2 (transient transfection)
T2 sequence (Q14994 1-348 isoform Q14994-2): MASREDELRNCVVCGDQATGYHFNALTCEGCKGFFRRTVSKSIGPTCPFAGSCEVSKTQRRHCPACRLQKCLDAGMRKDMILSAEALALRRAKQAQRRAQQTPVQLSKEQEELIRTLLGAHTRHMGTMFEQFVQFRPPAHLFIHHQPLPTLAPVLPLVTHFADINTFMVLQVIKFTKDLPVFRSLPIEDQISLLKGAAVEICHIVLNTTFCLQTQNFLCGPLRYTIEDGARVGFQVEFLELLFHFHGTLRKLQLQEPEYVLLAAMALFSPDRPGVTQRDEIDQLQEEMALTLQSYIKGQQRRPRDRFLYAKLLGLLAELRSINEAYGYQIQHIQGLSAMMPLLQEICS
Protocol: HepG2 cells grown in flasks were transfected with Flag-hCAR1 and CYP2B6-luciferase reporter at a 1:3 ratio with Fugene HD (Promega) and incubated for 24 h. Cells were trypsinized and plated in 384-well plates (CulturPlate-384, PerkinElmer) at 5000 cells/well for the primary or secondary screening assays. Cells were treated with chemicals transferred by using a pintool 24 h prior to measuring reporter luciferase activity with SteadyLite firefly luciferase reagent and an EnVision plate reader (PerkinElmer). […] PXR activity was measured in HepG2 cells stably transfected with hPXR and CYP3A4-luciferase reporter (previously described as PXR Clonel cells, see Li, G., et al. (2012) Tox. Appl. Pharm. 258, 268-274; and Lin, W., et al. (2008) J. Biol. Chem. 283, 30650-30657). […] The luminescence signal was detected by using an Envision plate reader (PerkinElmer) and used to calculate the percentage of PXR activation. […] A flowchart of our screening strategy is illustrated in FIG. 1A. HepG2 cells were transiently transfected with pcDNA-hCAR1 and CYP2B6-luciferase plasmids and treated with varying concentrations of the test compounds in 384-well plates for 24 h, and CAR-mediated luciferase activity was measured. Twenty-five hits, defined as those displaying dose-responsive inhibitory effect on the constitutively active hCAR1, were selected and tested in various secondary screening assays. CINPA1 (FIG. 1B) was selected based on its potent inhibitory effect on hCAR1 and lack of detectable agonistic activity against PXR.

[3] = test system: CAR-regulated genes in LS174T cells; experiment: Quantitative real-time PCR in LS174T cells; assay type: cell-based; conditions: 1 μM CINPA1 or 5 μM PK11195, 24 h
From the text: as §1
Briefly, LS174T were maintained in 10% charcoal-dextran treated-FBS media for 4 days prior to the experiment. […] For the data shown in both FIG. 12A and FIG. 12B, RNA extracted was used for cDNA synthesis and measured by quantitative real-time PCR with Taqman probes. MDR1 mRNA was normalized to the internal control 18S and DMSO treated samples were set to 1. *, p<0.05 when compared to DMSO samples.
as §2

[4] = 70 μM compound, 42 μM clotrimazole = 100%, DMSO = 0%
[5] = read-out: IC50 (CAR inverse agonistic activity)

Molecule	CYP2B6 mRNA level, compound alone [1]	inhibition at 70 µM (GST-hCAR-LBD; [4]) [%]	IC50 (GST-hCAR-LBD; [5]) [µM]	IC50 (hCAR1) [µM]	% Inhibition (56 μM) (hCAR1) [%]	also measured
Clc1ccc(-c2nc3sccn3c2/C=N/OCc2ccc(Cl)c(Cl)c2)cc1 [CITCO, 6-(4-chlorophenyl)imidazo [2,1-b][1,3]thiazole-5-carbaldehyde O-(3,4-dichlorobenzyl) oxime, reference compound]	induced CYP2B6 levels					CAR recruitment to XREM (dNR3) of the CYP2B6 gene [2]: enhances recruitment of CAR
CCN(CC)CC(=O)N1c2ccccc2CCc2ccc(NC(=O)N(CC)CC)cc21 [Compound 8, 3-(5-(diethylglycyl)-10,11-dihydro-5H-dibenzo[b,f]azepin-3-yl)-1,1-diethylurea]		93.8	14	109.6	2.849	
CCNS(=O)(=O)Nc1ccc2c(c1)N(C(=O)CN(CC)CC)c1ccccc1CC2 [Compound 9]		92	19.1	105.9	4.757	
CCN(CC)CC(=O)N1c2ccccc2CCc2ccc(Nc3nnc(C)o3)cc21 [Compound 10, 2-(diethylamino)-1-(3-((5-methyl-1,3,4-oxadiazol-2-yl)amino)-10,11-dihydro-5H-dibenzo[b,f]azepin-5-yl)ethan-1-one]		93.8		111.6	6.281	IC50 (GST-hCAR-LBD; Table 4, read-out: IC50): 18.8 µM; fold increase of IC50 (decrease of activity) relative to lead chemical 1 (CINPA1) (GST-hCAR-LBD; relative to chemical 1): about 3.4 fold
CCC(C)N(C)C(=O)c1cc2ccccc2c(-c2ccccc2Cl)n1 (centres unmarked) [PK11195, reference compound]	increased CYP2B6 transcription					CYP2B6 mRNA level [3]: reduced the levels of CYP2B6; CYP3A4 mRNA level [3]: increased that of CYP3A4; MDR1 mRNA level [3]: reduced MDR1 levels
N-(5-(diethylglycyl)-10,11-dihydro-5H-dibenzo[b,f]azepin-3-yl)isobutyramide [Compound 3]			0.68	104.4	0.03612	% Inhibition (70 μM) (GST-hCAR-LBD; [4]): 113.8%
